# Measured values as given in US20220040335A1, “RADIOLABELED PABA AND DERIVATIVES THEREOF FOR USE AS FUNCTIONAL RENAL IMAGING AGENTS” (priority 2018, published 2022).
# “Also recorded” adds a separate entry of the source.
# Experiment: Dynamic PET/CT renal imaging (renogram) after intravenous injection in healthy rats
# Format: in vivo, Wistar rats
# Experimental: Methods for renal imaging: ^11C-PABA was synthesized using cGMP conditions at the JHU PET Center. Four female healthy Wistar rats (250-275 g of bodyweight) were injected with 30.5±10.3 MBq of ^11C-PABA through a tail-vein catheter and a dynamic PET scan was performed (15 frames×20 seconds, 5 frames×1 minute, 10 frames×5 minutes, total of 60 minutes) using the nanoScan PET/CT (Mediso). Subsequently, CT imaging was performed for anatomical co-registration. As a control, the same rats were also injected intravenously with 18.5 MBq of ^99mTc-MAG3 (Cardinal Health) and scanned using planar scintigraphy with the nanoSPECT/CT (Nanoscan). The images were analyzed with VivoQuant 3.0 (Invicro) and regions of interest were drawn using the CT as reference.
# [1] = representative healthy rat, FIG. 3
structure (smiles),measurement,setting,value
"Nc1ccc([11C](=O)O)cc1 [^11C-PABA, [Carboxy-11C] 4-Aminobenzoic acid]",time after injection at which PET/CT signal localized in the right kidney,FIG. 4A,220 to 240 s
same,signal in the kidneys compared to liver and spleen,"at time-to-peak, healthy rats, FIG. 3",30-40 ×
same,renal clearance / excretion from kidneys (in words),"dynamic PET after IV injection, healthy rats, FIG. 2",rapid excretion; also recorded: rapid renal clearance; also recorded: rapidly localized in the kidneys
same,background accumulation of the tracer in other organs (in words),"dynamic PET, healthy rats",very low background accumulation
same,time-to-peak in time-activity curves,"kidneys, dynamic PET after IV injection of 30.5±10.3 MBq, healthy female Wistar rats",9.5 ± 1.4 min
same,cortical phase of renogram,[1],4.7 to 10 min
same,vascular phase of renogram,[1],0 to 4.7 min
